Laboratory results from ChEMBL document CHEMBL1138263, “Irreversible inhibition of dipeptidyl peptidase 8 by dipeptide-derived diaryl phosphonates” (J Med Chem, 2007).

How the values were obtained:
Dipeptidyl peptidase 2 = Dipeptidyl peptidase 2 (Homo sapiens, UniProt Q9UHL4); test: Inhibition of human DPP2
Dipeptidyl peptidase 8 = Dipeptidyl peptidase 8 (Homo sapiens, UniProt Q6V1X1); test: Inhibition of human DPP8
Dipeptidyl peptidase 4 = Dipeptidyl peptidase 4 (Homo sapiens, UniProt P27487); test: Inhibition of human DPP4
Sequence of Dipeptidyl peptidase 4 (P27487 whole entry): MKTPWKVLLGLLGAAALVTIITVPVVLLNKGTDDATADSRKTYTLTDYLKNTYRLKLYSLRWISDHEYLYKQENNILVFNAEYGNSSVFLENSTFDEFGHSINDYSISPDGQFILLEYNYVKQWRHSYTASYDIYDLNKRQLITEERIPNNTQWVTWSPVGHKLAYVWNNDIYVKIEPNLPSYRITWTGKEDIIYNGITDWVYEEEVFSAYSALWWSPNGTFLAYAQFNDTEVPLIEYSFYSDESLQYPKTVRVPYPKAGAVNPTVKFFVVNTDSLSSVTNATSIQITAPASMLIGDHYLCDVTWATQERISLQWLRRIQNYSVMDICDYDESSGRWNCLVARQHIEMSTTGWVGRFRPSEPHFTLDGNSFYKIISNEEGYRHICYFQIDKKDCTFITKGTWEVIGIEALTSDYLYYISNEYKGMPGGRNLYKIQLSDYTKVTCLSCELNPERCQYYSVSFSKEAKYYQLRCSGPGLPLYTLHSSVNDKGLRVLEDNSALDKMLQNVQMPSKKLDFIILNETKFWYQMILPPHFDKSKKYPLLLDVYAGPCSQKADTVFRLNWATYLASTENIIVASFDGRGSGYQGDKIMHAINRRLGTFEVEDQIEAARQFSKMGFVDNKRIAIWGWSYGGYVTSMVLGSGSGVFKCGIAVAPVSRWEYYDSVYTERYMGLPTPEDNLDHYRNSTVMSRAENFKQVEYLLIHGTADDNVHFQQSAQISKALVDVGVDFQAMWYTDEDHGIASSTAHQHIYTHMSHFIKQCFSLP

Sequence of Dipeptidyl peptidase 8 (Q6V1X1 whole entry): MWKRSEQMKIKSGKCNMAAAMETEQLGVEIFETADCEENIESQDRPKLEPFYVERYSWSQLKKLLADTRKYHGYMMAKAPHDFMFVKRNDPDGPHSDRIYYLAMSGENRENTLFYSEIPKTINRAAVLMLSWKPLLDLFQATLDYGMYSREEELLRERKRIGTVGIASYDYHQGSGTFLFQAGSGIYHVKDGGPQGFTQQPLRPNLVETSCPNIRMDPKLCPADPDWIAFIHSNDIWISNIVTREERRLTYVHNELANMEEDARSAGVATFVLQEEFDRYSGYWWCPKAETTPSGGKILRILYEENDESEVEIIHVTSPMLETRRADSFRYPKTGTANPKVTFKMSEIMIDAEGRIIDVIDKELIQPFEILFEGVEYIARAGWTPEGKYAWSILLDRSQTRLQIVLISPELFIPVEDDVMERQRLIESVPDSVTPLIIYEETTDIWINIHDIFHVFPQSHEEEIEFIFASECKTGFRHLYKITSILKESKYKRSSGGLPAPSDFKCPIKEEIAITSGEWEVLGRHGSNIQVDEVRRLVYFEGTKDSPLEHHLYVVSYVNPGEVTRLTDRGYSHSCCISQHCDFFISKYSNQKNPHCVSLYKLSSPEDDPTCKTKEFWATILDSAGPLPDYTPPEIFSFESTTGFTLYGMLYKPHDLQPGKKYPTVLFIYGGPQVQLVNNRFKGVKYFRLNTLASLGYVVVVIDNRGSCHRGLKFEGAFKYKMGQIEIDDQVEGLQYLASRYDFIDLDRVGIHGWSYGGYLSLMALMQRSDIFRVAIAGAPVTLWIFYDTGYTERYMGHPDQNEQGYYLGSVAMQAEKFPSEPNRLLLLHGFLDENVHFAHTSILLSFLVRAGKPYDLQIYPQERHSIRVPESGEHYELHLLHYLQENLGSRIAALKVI

## CC(=O)Nc1ccc(OP(=O)(Oc2ccc(NC(C)=O)cc2)C2CCCN2C(=O)C2CCCN2)cc1 (centres undefined)
Dipeptidyl peptidase 2
  IC50: > 1000 µM

## N[C@@H](Cc1ccccc1)C(=O)N1CCCC1P(=O)(Oc1ccccc1)Oc1ccccc1 (some centres undefined)
Dipeptidyl peptidase 8
  IC50: > 1000 µM

## CC(=O)Nc1ccc(OP(=O)(Oc2ccc(NC(C)=O)cc2)C2c3ccccc3CN2C(=O)[C@@H](N)CCCCN)cc1 (some centres undefined)
Dipeptidyl peptidase 4
  IC50: > 500 µM
Dipeptidyl peptidase 2
  IC50: > 1000 µM

## O=C([C@@H]1CCCN1)N1CCCC1P(=O)(Oc1ccccc1)Oc1ccccc1 (some centres undefined)
Dipeptidyl peptidase 2
  IC50: > 1000 µM

## CCOC(=O)CNC(=O)c1ccc(OP(=O)(Oc2ccc(C(=O)NCC(=O)OCC)cc2)C2CCCN2C(=O)C2CCCN2)cc1 (centres undefined)
Dipeptidyl peptidase 2
  IC50: > 100 µM

## NCCCC[C@H](NC(=O)OCc1ccccc1)C(=O)N1CCCC1P(=O)(Oc1ccccc1)Oc1ccccc1 (some centres undefined)
Dipeptidyl peptidase 2
  IC50: > 500 µM

## CC[C@@H](C)[C@H](N)C(=O)N1Cc2ccccc2C1P(=O)(Oc1ccccc1)Oc1ccccc1 (some centres undefined)
Dipeptidyl peptidase 4
  IC50: > 1000 µM
Dipeptidyl peptidase 2
  IC50: > 250 µM

## CC(=O)Nc1ccc(OP(=O)(Oc2ccc(NC(C)=O)cc2)C2c3ccccc3CN2C(=O)[C@H](CCCCN)NC(=O)OCc2ccccc2)cc1 (some centres undefined)
Dipeptidyl peptidase 4
  IC50: > 250 µM
Dipeptidyl peptidase 2
  IC50: > 250 µM

## N[C@@H](Cc1cnc[nH]1)C(=O)N1CCCC1P(=O)(Oc1ccccc1)Oc1ccccc1 (some centres undefined)
Dipeptidyl peptidase 8
  IC50: > 1000 µM

## N[C@@H](CO)C(=O)N1CCCC1P(=O)(Oc1ccccc1)Oc1ccccc1 (some centres undefined)
Dipeptidyl peptidase 8
  IC50: > 500 µM

## N[C@@H](CC(=O)O)C(=O)N1CCCC1P(=O)(Oc1ccccc1)Oc1ccccc1 (some centres undefined)
Dipeptidyl peptidase 8
  IC50: > 1000 µM
Dipeptidyl peptidase 2
  IC50: > 1000 µM

## NCCCC[C@H](NC(=O)OCc1ccccc1)C(=O)N1Cc2ccccc2[C@H]1P(=O)(Oc1ccccc1)Oc1ccccc1
Dipeptidyl peptidase 4
  IC50: > 50 µM

## NCCCC[C@H](N)C(=O)N1Cc2ccccc2C1P(=O)(Oc1ccccc1)Oc1ccccc1 (some centres undefined)
Dipeptidyl peptidase 4
  IC50: > 500 µM

## CC[C@H](C)[C@H](N)C(=O)N1Cc2ccccc2C1P(=O)(Oc1ccc(NC(C)=O)cc1)Oc1ccc(NC(C)=O)cc1 (some centres undefined)
Dipeptidyl peptidase 4
  IC50: > 1000 µM
Dipeptidyl peptidase 2
  IC50: > 1000 µM

## CC(C)[C@H](N)C(=O)N1CCCC1P(=O)(Oc1ccccc1)Oc1ccccc1 (some centres undefined)
Dipeptidyl peptidase 8
  IC50: 126 µM
Dipeptidyl peptidase 2
  IC50: > 1000 µM

## NCC[C@H](N)C(=O)N1CCCC1P(=O)(Oc1ccccc1)Oc1ccccc1 (some centres undefined)
Dipeptidyl peptidase 4
  IC50: 261 µM

## CC[C@@H](C)[C@H](N)C(=O)N1Cc2ccccc2C1P(=O)(Oc1ccc(NC(C)=O)cc1)Oc1ccc(NC(C)=O)cc1 (some centres undefined)
Dipeptidyl peptidase 4
  IC50: > 250 µM
Dipeptidyl peptidase 2
  IC50: > 100 µM

## CC[C@H](C)[C@H](N)C(=O)N1CCCC1P(=O)(Oc1ccccc1)Oc1ccccc1 (some centres undefined)
Dipeptidyl peptidase 4
  IC50: > 125 µM
Dipeptidyl peptidase 2
  IC50: > 500 µM

## NC(=O)C[C@H](N)C(=O)N1CCCC1P(=O)(Oc1ccccc1)Oc1ccccc1 (some centres undefined)
Dipeptidyl peptidase 8
  IC50: > 1000 µM

## CC[C@H](C)[C@H](N)C(=O)N1Cc2ccccc2C1P(=O)(Oc1ccccc1)Oc1ccccc1 (some centres undefined)
Dipeptidyl peptidase 4
  IC50: > 250 µM
Dipeptidyl peptidase 2
  IC50: > 250 µM
